Measured values as given in patent publication US20200239530A1, “COMPOUNDS AND METHODS OF MODULATING PROTEIN DEGRADATION” (Vividion Therapeutics, Inc., priority 2017, published 2020).

Tests used:
Test in all cases: Cysteine liganding, probe competition
Format in all cases: binding
[1] = biological target: T1, ATP6V1A V-type proton ATPase catalytic subunit A (Homo sapiens, UniProt P38606); conditions: for Liganded: ATP6V1A Res# 277, uniprot P38606
T1 construct: 200 μL of lysate containing 5 mg/ml proteome was treated with 2 μL of 100× compound stock; endogenous in cells
Outline: (§1)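 Read-out is loss of desthiobiotin iodoacetamide labelling at cysteines, measured on streptavidin-enriched tryptic peptides. Compound preincubation ran 1 hr at 25° C in PBS lysate holding 5 mg/ml proteome before the probe was added.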

FASN Fatty acid synthase = biological target: T2, FASN Fatty acid synthase (Homo sapiens, UniProt P49327)
T2 construct: 200 μL of lysate containing 5 mg/ml proteome was treated with 2 μL of 100× compound stock; endogenous in cells
Outline: as §1

[2] = biological target: T3, RPS6KA3 Ribosomal protein S6 kinase alpha-3 (Homo sapiens, UniProt P51812)
T3 construct: Cells were resuspended in cold PBS on ice and sonicated with a probe sonicator to achieve lysis; endogenous in cells
Outline: as §1

[3] = biological target: T4, TRIM33 E3 ubiquitin-protein ligase TRIM33 (Homo sapiens, UniProt Q9UPN9)
T4 construct: Cells were resuspended in cold PBS on ice and sonicated with a probe sonicator to achieve lysis; endogenous in cells
T4 sequence (Q9UPN9 1-1127): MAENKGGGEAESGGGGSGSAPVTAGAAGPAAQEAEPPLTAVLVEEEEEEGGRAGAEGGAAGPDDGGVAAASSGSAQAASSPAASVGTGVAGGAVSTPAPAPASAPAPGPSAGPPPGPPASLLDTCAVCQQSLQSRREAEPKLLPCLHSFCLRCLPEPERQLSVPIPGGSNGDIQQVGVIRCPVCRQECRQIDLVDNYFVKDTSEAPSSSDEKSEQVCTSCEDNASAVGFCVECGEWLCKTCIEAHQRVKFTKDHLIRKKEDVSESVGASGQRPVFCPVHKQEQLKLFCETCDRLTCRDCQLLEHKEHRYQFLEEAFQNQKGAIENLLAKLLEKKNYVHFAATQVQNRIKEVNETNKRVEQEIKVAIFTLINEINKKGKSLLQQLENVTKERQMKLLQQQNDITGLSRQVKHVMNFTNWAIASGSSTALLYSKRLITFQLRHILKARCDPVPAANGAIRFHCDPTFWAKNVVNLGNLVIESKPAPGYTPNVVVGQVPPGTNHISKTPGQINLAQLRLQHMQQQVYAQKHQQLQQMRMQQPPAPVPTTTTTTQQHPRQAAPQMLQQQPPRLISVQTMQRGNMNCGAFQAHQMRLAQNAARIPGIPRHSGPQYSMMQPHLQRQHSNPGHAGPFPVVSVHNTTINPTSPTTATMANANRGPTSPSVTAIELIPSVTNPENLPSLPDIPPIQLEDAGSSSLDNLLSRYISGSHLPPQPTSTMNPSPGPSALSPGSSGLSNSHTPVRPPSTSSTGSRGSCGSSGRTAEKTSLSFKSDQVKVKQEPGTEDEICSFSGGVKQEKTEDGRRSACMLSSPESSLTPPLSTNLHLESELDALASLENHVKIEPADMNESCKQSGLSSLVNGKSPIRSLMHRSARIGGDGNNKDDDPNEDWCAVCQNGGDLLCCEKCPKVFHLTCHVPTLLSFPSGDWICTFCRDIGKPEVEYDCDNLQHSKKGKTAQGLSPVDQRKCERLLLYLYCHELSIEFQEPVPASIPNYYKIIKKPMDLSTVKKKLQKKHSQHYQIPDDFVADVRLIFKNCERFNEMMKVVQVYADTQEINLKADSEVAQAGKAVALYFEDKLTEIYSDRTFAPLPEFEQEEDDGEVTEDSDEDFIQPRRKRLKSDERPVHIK
Outline: as §1

T2 sequence (P49327 whole entry): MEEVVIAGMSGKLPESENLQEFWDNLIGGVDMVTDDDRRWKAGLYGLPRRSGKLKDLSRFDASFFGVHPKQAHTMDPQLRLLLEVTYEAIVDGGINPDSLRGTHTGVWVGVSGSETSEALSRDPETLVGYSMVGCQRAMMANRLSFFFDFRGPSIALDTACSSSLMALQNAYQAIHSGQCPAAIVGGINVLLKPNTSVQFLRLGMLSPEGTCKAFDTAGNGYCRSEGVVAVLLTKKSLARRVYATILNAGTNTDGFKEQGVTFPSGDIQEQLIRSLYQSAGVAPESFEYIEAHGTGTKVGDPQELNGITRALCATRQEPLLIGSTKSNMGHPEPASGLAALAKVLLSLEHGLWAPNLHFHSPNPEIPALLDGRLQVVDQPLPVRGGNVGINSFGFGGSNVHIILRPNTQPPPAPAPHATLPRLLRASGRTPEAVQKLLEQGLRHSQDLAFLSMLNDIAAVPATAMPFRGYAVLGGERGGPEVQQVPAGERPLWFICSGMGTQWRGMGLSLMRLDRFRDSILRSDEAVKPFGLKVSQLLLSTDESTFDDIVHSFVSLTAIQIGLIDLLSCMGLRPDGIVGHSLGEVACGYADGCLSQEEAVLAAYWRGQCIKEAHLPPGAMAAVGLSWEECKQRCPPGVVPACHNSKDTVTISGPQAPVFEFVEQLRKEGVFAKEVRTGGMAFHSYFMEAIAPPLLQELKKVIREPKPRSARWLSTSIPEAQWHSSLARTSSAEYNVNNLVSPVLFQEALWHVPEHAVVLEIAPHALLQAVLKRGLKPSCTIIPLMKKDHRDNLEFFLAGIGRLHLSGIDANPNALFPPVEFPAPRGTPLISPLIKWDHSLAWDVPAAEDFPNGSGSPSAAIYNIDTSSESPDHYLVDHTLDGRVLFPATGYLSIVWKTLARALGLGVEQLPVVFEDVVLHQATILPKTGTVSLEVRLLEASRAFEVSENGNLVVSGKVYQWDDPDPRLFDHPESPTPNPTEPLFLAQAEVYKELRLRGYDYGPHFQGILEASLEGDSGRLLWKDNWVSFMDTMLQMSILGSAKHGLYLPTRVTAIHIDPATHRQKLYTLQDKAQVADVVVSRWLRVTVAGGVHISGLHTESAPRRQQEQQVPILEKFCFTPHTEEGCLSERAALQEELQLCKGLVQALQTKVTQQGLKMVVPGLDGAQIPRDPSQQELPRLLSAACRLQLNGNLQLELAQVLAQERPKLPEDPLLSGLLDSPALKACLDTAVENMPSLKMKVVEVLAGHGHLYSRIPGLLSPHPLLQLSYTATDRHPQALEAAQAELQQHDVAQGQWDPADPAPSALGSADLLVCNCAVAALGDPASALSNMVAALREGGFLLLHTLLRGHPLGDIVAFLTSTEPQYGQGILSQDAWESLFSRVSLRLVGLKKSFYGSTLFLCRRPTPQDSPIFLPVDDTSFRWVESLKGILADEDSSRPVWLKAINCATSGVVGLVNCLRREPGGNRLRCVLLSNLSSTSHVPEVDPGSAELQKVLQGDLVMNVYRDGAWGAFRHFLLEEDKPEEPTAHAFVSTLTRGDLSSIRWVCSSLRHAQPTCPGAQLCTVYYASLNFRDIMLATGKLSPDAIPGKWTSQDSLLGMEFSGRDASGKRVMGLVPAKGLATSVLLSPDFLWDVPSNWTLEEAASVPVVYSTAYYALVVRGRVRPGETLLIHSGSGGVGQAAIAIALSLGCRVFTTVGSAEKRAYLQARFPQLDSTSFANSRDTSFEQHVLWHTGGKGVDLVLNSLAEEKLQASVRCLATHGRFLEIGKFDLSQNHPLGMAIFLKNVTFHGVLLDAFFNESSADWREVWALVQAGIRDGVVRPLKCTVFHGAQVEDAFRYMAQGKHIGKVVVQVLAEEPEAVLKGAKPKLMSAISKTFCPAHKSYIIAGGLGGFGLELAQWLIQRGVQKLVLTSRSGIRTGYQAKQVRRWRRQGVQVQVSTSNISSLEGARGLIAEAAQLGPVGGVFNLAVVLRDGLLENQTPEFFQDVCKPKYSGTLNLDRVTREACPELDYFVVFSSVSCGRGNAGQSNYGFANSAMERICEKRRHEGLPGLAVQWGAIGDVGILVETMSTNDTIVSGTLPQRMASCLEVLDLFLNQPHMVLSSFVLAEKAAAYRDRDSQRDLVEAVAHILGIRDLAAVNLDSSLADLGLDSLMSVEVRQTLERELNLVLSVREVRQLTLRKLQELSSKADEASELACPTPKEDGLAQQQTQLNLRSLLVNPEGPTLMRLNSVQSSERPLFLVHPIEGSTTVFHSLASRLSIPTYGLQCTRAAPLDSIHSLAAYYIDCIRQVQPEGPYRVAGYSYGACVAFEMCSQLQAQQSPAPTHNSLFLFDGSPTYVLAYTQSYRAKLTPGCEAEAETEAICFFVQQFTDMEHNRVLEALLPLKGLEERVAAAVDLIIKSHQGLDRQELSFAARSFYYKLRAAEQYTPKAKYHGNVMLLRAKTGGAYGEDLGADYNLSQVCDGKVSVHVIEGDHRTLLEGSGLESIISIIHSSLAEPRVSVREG
T3 sequence (P51812 whole entry): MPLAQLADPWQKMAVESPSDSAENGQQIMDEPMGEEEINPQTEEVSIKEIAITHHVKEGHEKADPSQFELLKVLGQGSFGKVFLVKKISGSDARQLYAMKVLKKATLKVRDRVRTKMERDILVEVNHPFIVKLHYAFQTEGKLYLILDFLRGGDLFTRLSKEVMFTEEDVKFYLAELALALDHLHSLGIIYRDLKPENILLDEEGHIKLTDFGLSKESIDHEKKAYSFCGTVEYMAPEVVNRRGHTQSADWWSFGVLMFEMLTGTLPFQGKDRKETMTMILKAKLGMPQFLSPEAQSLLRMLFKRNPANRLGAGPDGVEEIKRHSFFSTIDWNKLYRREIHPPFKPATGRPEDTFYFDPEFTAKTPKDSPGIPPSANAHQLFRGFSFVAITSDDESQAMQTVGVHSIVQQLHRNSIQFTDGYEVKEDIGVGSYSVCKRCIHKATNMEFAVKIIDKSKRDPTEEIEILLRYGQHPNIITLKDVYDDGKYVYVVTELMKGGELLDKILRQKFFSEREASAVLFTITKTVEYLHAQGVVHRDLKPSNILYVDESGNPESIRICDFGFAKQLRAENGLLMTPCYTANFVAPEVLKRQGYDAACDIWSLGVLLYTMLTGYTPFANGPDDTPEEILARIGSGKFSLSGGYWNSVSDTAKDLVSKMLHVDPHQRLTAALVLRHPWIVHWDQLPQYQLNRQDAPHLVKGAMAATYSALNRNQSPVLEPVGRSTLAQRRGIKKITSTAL
T1 sequence (P38606 whole entry): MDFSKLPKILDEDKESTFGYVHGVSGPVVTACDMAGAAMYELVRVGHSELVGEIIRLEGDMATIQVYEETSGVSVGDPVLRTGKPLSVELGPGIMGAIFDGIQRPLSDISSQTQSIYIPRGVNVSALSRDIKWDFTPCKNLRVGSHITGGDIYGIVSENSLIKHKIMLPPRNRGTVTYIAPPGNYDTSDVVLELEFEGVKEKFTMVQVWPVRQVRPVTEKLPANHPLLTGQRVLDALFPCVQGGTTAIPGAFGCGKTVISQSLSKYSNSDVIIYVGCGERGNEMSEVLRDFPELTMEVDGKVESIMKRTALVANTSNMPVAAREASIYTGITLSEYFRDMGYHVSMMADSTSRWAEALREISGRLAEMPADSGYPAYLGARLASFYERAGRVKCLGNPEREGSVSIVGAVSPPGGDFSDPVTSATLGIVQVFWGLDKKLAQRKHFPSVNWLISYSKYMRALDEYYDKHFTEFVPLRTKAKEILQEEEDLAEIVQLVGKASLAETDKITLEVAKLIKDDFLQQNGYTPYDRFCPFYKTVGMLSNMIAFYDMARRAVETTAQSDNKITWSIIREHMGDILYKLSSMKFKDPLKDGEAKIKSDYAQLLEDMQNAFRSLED

SMILES	Liganded [1]	Liganded (FASN Fatty acid synthase; FASN Res# 161, uniprot P49327)	Liganded ([2]; RPS6KA3 Res# 229, uniprot P51812)	Liganded ([3]; TRIM33 Res# 582, uniprot Q9UPN9)	100 Max ([1]; uniprot P38606)	100 ave ([1]; uniprot P38606)	500 Max ([1]; uniprot P38606)	500 ave ([1]; uniprot P38606)	100 Max (FASN Fatty acid synthase; uniprot P49327)	100 ave (FASN Fatty acid synthase; uniprot P49327)	100 Max ([2]; uniprot P51812)	100 ave ([2]; uniprot P51812)	500 ave ([2]; uniprot P51812)	500 Max ([2]; uniprot P51812, in % (unit assumed))	KB03_500 uM_percent_inhibition ([3]; 500 uM, UniProt Q9UPN9) [%]	Liganded ([3]; TRIM33 Res# 153, uniprot Q9UPN9)
COc1ccc2c(c1)CCCN2C(=O)CCl [KB02]	YES	YES	YES	YES	–	–	–	–	–	–	–	–	–	–	–	–
O=C(CCl)Nc1cc(C(F)(F)F)cc(C(F)(F)F)c1 [KBO3]	YES	–	–	–	27.98	18.165	76.55	69.985	−26.25	−26.25	1.03	−4.767	30.61	30.61	86	YES
